Test results from US10233186B2, “Inhibitors of activin receptor-like kinase” (BLUEPRINT MEDICINES CORPORATION, priority 2016, dated 2019).

Columns and labels:
[1] = biological target: T1, ALK2 R206H (GST-tagged mutant ALK2) (Homo sapiens, UniProt Q04771, R206H); experiment: ALK binding assay (LANTHASCREEN TR-FRET competitive binding, displacement of Kinase Tracer 178); conditions: ALK2 R206H, LANTHASCREEN TR-FRET competitive binding; read-out: Binding Assay (IC50)
T1 construct: purchased Carna Bioscience or ThermoFisher 09-148 or PV6232
T1 sequence (Q04771 21-509 R206H): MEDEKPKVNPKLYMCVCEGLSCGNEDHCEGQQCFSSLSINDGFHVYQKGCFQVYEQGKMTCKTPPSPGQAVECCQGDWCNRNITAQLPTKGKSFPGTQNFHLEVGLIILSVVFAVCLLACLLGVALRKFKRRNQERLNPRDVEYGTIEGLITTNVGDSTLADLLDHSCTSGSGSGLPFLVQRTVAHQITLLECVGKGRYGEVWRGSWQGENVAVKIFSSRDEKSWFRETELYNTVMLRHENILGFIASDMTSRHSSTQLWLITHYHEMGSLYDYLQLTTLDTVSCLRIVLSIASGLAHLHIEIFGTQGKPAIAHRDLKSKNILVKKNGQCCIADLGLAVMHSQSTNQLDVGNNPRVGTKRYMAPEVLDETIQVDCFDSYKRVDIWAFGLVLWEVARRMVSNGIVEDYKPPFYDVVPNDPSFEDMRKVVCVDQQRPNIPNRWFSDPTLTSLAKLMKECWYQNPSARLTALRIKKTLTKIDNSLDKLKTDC

human ALK2 R206H = biological target: T2, human ALK2 R206H (Homo sapiens, UniProt Q04771, R206H); experiment: Cell-based ALK2-R206H cell activity assay (Smad1-Ser463/Ser465 phosphorylation by AlphaLISA in HEK293-ALK2-R206H cells); conditions: read-out: Cell Line (Cell Assay IC50)
T2 construct: expressed in transfected cells; host or cells: HEK293 (ATCC CRL1573), lentivirus transduction, blasticidin selection
T2 sequence (Q04771 21-509 R206H): T1 sequence (Q04771 21-509 R206H)
Procedure, shortened: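 Stable HEK293 cells expressing C-terminally FLAG-tagged human ALK2 R206H (lentiviral, blasticidin-selected) were treated with compounds in 10-point, 3-fold dilutions from 10 μM or 1 μM top, in duplicate. Smad1 Ser463/Ser465 phosphorylation was read by AlphaLISA.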

| Compound | IC50 [1] [nM] | IC50 (human ALK2 R206H) [nM] |
| --- | --- | --- |
| CC(C)NC(=O)N1CCN(c2ccnn3cc(-c4ccc([C@@H]5CCCN(C(C)C)C5)cn4)cc23)CC1 [Compound 588] | < 10 | < 100 |
| CC(C)NC(=O)N1CCN(c2ccnn3cc(-c4ccc([C@H]5CCCN(C(C)C)C5)cn4)cc23)CC1 [Compound 589] | < 10 | < 100 |
| CCNC(=O)N1CCN(c2ccnn3cc(-c4ccc([C@]5(O)CCCN(C(C)C)C5)cc4)cc23)CC1 [Compound 591] | < 10 | < 100 |
| CCNC(=O)N1CCN(c2ccnn3cc(-c4ccc([C@@]5(O)CCCN(C(C)C)C5)cc4)cc23)CC1 [Compound 592] | < 10 | < 100 |
| COC1(c2ccc(-c3cc4c(N5CCN(C(=O)NC(C)C)CC5)ccnn4c3)cc2)CN(C(C)C)C1 [Compound 593] | < 10 | < 100 |
| CC(C)NC(=O)N1CCN(c2ccnn3cc(-c4ccc(C5COCCN5C(C)C)cc4)cc23)CC1 (stereo not drawn) [Compound 594] | < 10 | < 100 |
| CC(C)NC(=O)N1CCN(c2ccnn3cc(-c4ccc([C@@]5(O)CCN(C(C)C)C5)cc4)cc23)CC1 [Compound 595] | < 10 | < 100 |
| CC(C)NC(=O)N1CCN(c2ccnn3cc(-c4ccc([C@]5(O)CCN(C(C)C)C5)cc4)cc23)CC1 [Compound 596] | < 10 | 100 to 500 |
| CCOC(=O)N1CCN(c2ccnn3cc(-c4ccc([C@@]5(C)CN(C(C)C)CCN5)cc4)cc23)CC1 [Compound 597] | < 10 | < 100 |
| CCOC(=O)N1CCN(c2ccnn3cc(-c4ccc([C@]5(C)CN(C(C)C)CCN5)cc4)cc23)CC1 [Compound 598] | < 10 | < 100 |
| COC1(c2ccc(-c3cc4c(N5CCN(C(=O)OC6COC6)CC5)ccnn4c3)cc2)CCNCC1 [Compound 599] | < 10 | < 100 |
| CO[C@@]1(c2ccc(-c3cc4c(N5CCN(C(=O)OC6COC6)CC5)ccnn4c3)cc2)CCCNC1 [Compound 600] | < 10 | < 100 |
| CO[C@]1(c2ccc(-c3cc4c(N5CCN(C(=O)OC6COC6)CC5)ccnn4c3)cc2)CCCNC1 [Compound 601] | < 10 | < 100 |
| CCOC(=O)N1CCN(c2ccnn3cc(-c4ccc([C@@]5(OC)CCN(C(C)C)C5)cc4)cc23)CC1 [Compound 603] | < 10 | < 100 |
| CCOC(=O)N1CCN(c2ccnn3cc(-c4ccc([C@]5(OC)CCN(C(C)C)C5)cc4)cc23)CC1 [Compound 604] | < 10 | < 100 |
| CCNC(=O)N1CCN(c2ccnn3cc(-c4ccc([C@]5(O)CCCN(C(C)C)C5)cn4)cc23)CC1 [Compound 605] | < 10 | < 100 |
| CCNC(=O)N1CCN(c2ccnn3cc(-c4ccc([C@@]5(O)CCCN(C(C)C)C5)cn4)cc23)CC1 [Compound 606] | < 10 | < 100 |
| CC(C)NC(=O)N1CCN(c2ccnn3cc(-c4ccc([C@@]5(O)CCN(C(C)C)C5)cn4)cc23)CC1 [Compound 608] | < 10 | 100 to 500 |
| COC1(c2ccc(-c3cc4c(N5CCN(C(=O)OC6COC6)CC5)ccnn4c3)nc2)CCNCC1 [Compound 609] | < 10 | < 100 |
| CCOC(=O)N1CCN(c2ccnn3cc(-c4ccc([C@]5(F)CCCN(C(C)C)C5)cc4)cc23)CC1 [Compound 610] | < 10 | < 100 |
| CCOC(=O)N1CCN(c2ccnn3cc(-c4ccc([C@@]5(F)CCCN(C(C)C)C5)cc4)cc23)CC1 [Compound 611] | < 10 | < 100 |
| CCOC(=O)N1CCN(c2ccnn3cc(-c4ccc([C@]5(F)CCCN(C(C)C)C5)cn4)cc23)CC1 [Compound 613] | < 10 | < 100 |
| CCOC(=O)N1CCN(c2ccnn3cc(-c4ccc([C@@]5(F)CCCN(C(C)C)C5)cn4)cc23)CC1 [Compound 614] | < 10 | < 100 |
| CC(C)N1CCC(C#N)(c2ccc(-c3cc4c(N5CCN(C(=O)C6CC6)CC5)ccnn4c3)cc2)CC1 [Compound 615] | < 10 | < 100 |
